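Protocol summary: plate cells (96-well), add compound at 5 concentrations, incubate 48 h, interpolate endpoints linearly. TGI is the concentration that stops growth completely.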
Experiments:
Assay in all cases: growth of human tumour cells (NCI), 48 h
[1] = test system: 786-0 renal
[2] = test system: A498 renal
[3] = test system: A549 NSCLC
[4] = test system: ACHN renal
[5] = test system: BT-549 breast
[6] = test system: CAKI-1 renal
[7] = test system: COLO 205 colon
[8] = test system: EKVX NSCLC
[9] = test system: HCT-116 colon
[10] = test system: HCT-15 colon
[11] = test system: HL-60(TB) leukemia
[12] = test system: HOP-62 NSCLC
[13] = test system: HOP-92 NSCLC
[14] = test system: HS 578T breast
[15] = test system: HT29 colon
[16] = test system: IGROV1 ovarian
[17] = test system: K-562 leukemia
[18] = test system: KM12 colon
[19] = test system: LOX IMVI melanoma
[20] = test system: M14 melanoma
[21] = test system: MALME-3M melanoma
[22] = test system: MCF7 breast
[23] = test system: MDA-MB-231 breast
[24] = test system: MDA-MB-435
[25] = test system: MDA-N
[26] = test system: MOLT-4 leukemia
[27] = test system: NCI-H226 lung
[28] = test system: NCI-H23 lung
[29] = test system: NCI-H460 lung
[30] = test system: NCI-H522 lung
[31] = test system: NCI/ADR-RES ovarian
[32] = test system: OVCAR-3 ovarian
[33] = test system: OVCAR-4 ovarian
[34] = test system: OVCAR-5 ovarian
[35] = test system: OVCAR-8 ovarian
[36] = test system: PC-3 prostate
[37] = test system: RPMI-8226 leukemia
[38] = test system: SF-268 CNS
[39] = test system: SF-295 CNS
[40] = test system: SF-539 CNS
[41] = test system: SK-MEL-2 melanoma
[42] = test system: SK-MEL-28 melanoma
[43] = test system: SK-MEL-5 melanoma
[44] = test system: SK-OV-3 ovarian
[45] = test system: SN12C renal
[46] = test system: SNB-19 CNS
[47] = test system: SR leukemia
[48] = test system: SW-620 colon
[49] = test system: T-47D breast
[50] = test system: TK-10 renal
[51] = test system: U251 CNS
[52] = test system: UACC-257 melanoma
[53] = test system: UACC-62 melanoma
[54] = test system: UO-31 renal
[55] = test system: CCRF-CEM leukemia
[56] = test system: DU-145 prostate
[57] = test system: HCC-2998 colon
[58] = test system: RXF 393 renal
[59] = test system: SNB-75 CNS

O=[N+]([O-])c1ccc2c(c1)c(S(=O)(=O)O)cc1nonc12
TGI [1]: > 100 µM
TGI [2]: > 100 µM
TGI [3]: > 100 µM
TGI [4]: > 100 µM
TGI [5]: > 100 µM
TGI [6]: > 100 µM
TGI [7]: > 100 µM
TGI [8]: > 100 µM
TGI [9]: > 100 µM
TGI [10]: > 100 µM
TGI [11]: > 100 µM
TGI [12]: > 100 µM
TGI [13]: > 100 µM
TGI [14]: > 100 µM
TGI [15]: > 100 µM
TGI [16]: > 100 µM
TGI [17]: > 100 µM
TGI [18]: > 100 µM
TGI [19]: > 100 µM
TGI [20]: > 100 µM
TGI [21]: > 100 µM
TGI [22]: > 100 µM
TGI [23]: > 100 µM
TGI [24]: > 100 µM
TGI [25]: > 100 µM
TGI [26]: > 100 µM
TGI [27]: > 100 µM
TGI [28]: > 100 µM
TGI [29]: > 100 µM
TGI [30]: > 100 µM
TGI [31]: > 100 µM
TGI [32]: > 100 µM
TGI [33]: > 100 µM
TGI [34]: > 100 µM
TGI [35]: > 100 µM
TGI [36]: > 100 µM
TGI [37]: > 100 µM
TGI [38]: > 100 µM
TGI [39]: > 100 µM
TGI [40]: > 100 µM
TGI [41]: > 100 µM
TGI [42]: > 100 µM
TGI [43]: > 100 µM
TGI [44]: > 100 µM
TGI [45]: > 100 µM
TGI [46]: > 100 µM
TGI [47]: > 100 µM
TGI [48]: > 100 µM
TGI [49]: > 100 µM
TGI [50]: > 100 µM
TGI [51]: > 100 µM
TGI [52]: > 100 µM
TGI [53]: > 100 µM
TGI [54]: > 100 µM

COc1ccc(/C=N/NC(=O)c2cnc3[nH]c(=O)n(C)c(=O)c3c2)cc1
TGI [1]: > 100 µM
TGI [3]: > 100 µM
TGI [4]: > 100 µM
TGI [5]: > 100 µM
TGI [6]: > 100 µM
TGI [55]: > 100 µM
TGI [7]: > 100 µM
TGI [56]: > 100 µM
TGI [8]: > 100 µM
TGI [57]: > 100 µM
TGI [9]: > 100 µM
TGI [10]: > 100 µM
TGI [12]: > 100 µM
TGI [14]: > 100 µM
TGI [15]: > 100 µM
TGI [16]: > 100 µM
TGI [17]: > 100 µM
TGI [18]: > 100 µM
TGI [20]: > 100 µM
TGI [21]: > 100 µM
TGI [22]: > 100 µM
TGI [23]: 86.8 µM
TGI [24]: > 100 µM
TGI [25]: > 100 µM
TGI [26]: > 100 µM
TGI [27]: > 100 µM
TGI [28]: > 100 µM
TGI [29]: > 100 µM
TGI [31]: > 100 µM
TGI [32]: > 100 µM
TGI [33]: > 100 µM
TGI [34]: > 100 µM
TGI [35]: > 100 µM
TGI [36]: > 100 µM
TGI [37]: > 100 µM
TGI [58]: > 100 µM
TGI [38]: > 100 µM
TGI [39]: > 100 µM
TGI [41]: > 100 µM
TGI [42]: > 100 µM
TGI [43]: > 100 µM
TGI [44]: > 100 µM
TGI [45]: > 100 µM
TGI [46]: 98.8 µM
TGI [59]: 38.6 µM
TGI [48]: > 100 µM
TGI [49]: > 100 µM
TGI [50]: > 100 µM
TGI [51]: > 100 µM
TGI [52]: > 100 µM
TGI [53]: > 100 µM
TGI [54]: > 100 µM

NS(=O)(=O)c1nnc(NS(=O)(=O)c2ccccc2C(=O)O)s1
TGI [1]: > 100 µM
TGI [2]: > 100 µM
TGI [3]: > 100 µM
TGI [4]: > 100 µM
TGI [5]: > 100 µM
TGI [6]: > 100 µM
TGI [7]: > 100 µM
TGI [56]: > 100 µM
TGI [8]: > 100 µM
TGI [57]: > 100 µM
TGI [9]: > 100 µM
TGI [10]: > 100 µM
TGI [12]: > 100 µM
TGI [13]: > 100 µM
TGI [14]: > 100 µM
TGI [15]: > 100 µM
TGI [17]: > 100 µM
TGI [18]: > 100 µM
TGI [19]: > 100 µM
TGI [20]: > 100 µM
TGI [21]: > 100 µM
TGI [22]: > 100 µM
TGI [23]: > 100 µM
TGI [24]: > 100 µM
TGI [25]: > 100 µM
TGI [26]: > 100 µM
TGI [27]: > 100 µM
TGI [28]: > 100 µM
TGI [29]: > 100 µM
TGI [30]: > 100 µM
TGI [31]: > 100 µM
TGI [32]: > 100 µM
TGI [33]: > 100 µM
TGI [34]: > 100 µM
TGI [35]: > 100 µM
TGI [37]: > 100 µM
TGI [58]: > 100 µM
TGI [38]: > 100 µM
TGI [39]: > 100 µM
TGI [41]: > 100 µM
TGI [42]: > 100 µM
TGI [43]: > 100 µM
TGI [44]: > 100 µM
TGI [45]: > 100 µM
TGI [46]: > 100 µM
TGI [47]: > 100 µM
TGI [48]: > 100 µM
TGI [49]: > 100 µM
TGI [50]: > 100 µM
TGI [51]: > 100 µM
TGI [52]: > 100 µM
TGI [53]: > 100 µM
TGI [54]: > 100 µM

O=[N+]([O-])c1c2nc3n(c2cc2c1nc1n2CCC1)CCC3
TGI [1]: > 100 µM
TGI [2]: > 100 µM
TGI [3]: > 100 µM
TGI [4]: > 100 µM
TGI [6]: > 100 µM
TGI [55]: > 100 µM
TGI [7]: > 100 µM
TGI [56]: > 100 µM
TGI [8]: > 100 µM
TGI [57]: > 100 µM
TGI [9]: > 100 µM
TGI [10]: > 100 µM
TGI [11]: > 100 µM
TGI [12]: > 100 µM
TGI [13]: > 100 µM
TGI [14]: > 100 µM
TGI [15]: > 100 µM
TGI [16]: > 100 µM
TGI [17]: > 100 µM
TGI [18]: > 100 µM
TGI [19]: > 100 µM
TGI [20]: > 100 µM
TGI [21]: > 100 µM
TGI [22]: > 100 µM
TGI [23]: > 100 µM
TGI [24]: > 100 µM
TGI [25]: > 100 µM
TGI [26]: > 100 µM
TGI [27]: > 100 µM
TGI [28]: > 100 µM
TGI [29]: > 100 µM
TGI [30]: > 100 µM
TGI [31]: > 100 µM
TGI [32]: > 100 µM
TGI [33]: > 100 µM
TGI [34]: > 100 µM
TGI [35]: > 100 µM
TGI [36]: > 100 µM
TGI [37]: > 100 µM
TGI [58]: > 100 µM
TGI [38]: > 100 µM
TGI [39]: > 100 µM
TGI [40]: > 100 µM
TGI [42]: > 100 µM
TGI [43]: > 100 µM
TGI [44]: > 100 µM
TGI [45]: > 100 µM
TGI [46]: > 100 µM
TGI [59]: > 100 µM
TGI [47]: > 100 µM
TGI [48]: > 100 µM
TGI [49]: > 100 µM
TGI [50]: > 100 µM
TGI [51]: > 100 µM
TGI [52]: > 100 µM
TGI [53]: > 100 µM
TGI [54]: > 100 µM

Source: PubChem BioAssay (NCI)
